# Test results published in patent US20240402608A1, “METHOD FOR NON-INVASIVE PRODUCTION OF DEFINED STRUCTURES INSIDE COMPARTMENTS AND COMPARTMENT” (MAX-PLANCK-GESELLSCHAFT ZUR FÖRDERUNG DER WISSENSCHAFTEN …, priority 2021, published 2024).
# {Atto647N} = Atto 647N fluorescent dye
# What was measured:
# [1] = Membrane permeability via fraction of successful printing attempts inside GUVs over time; settings: not told
# Procedure: The membrane permeability was determined by adding the respective components after incubation of the GUVs with the remaining components of the photoresist and quantifying the fraction of successful printing attempts, Nprint/Ntot, inside the GUVs over time (n=30 for each condition and time point). An exponential fit (black line) was used to determine the point in time of 50% success rate.
# The resist was polymerized inside the GUV by two-photon 3D laser printing. […] The printing success rate was used as an indirect way to determine the membrane permeability of the non-fluorescent components. For this purpose, PEGDA or LAP was added to GUVs that were pre-incubated with the other resist components. Subsequently, the fraction of successful printing attempts, Npol/Ntot, was quantified for 30 GUVs per time point over the course of up to 100 minutes.
# We use the interdependence of the permeability and the concentration inside of a GUV Cin [1] to determine the membrane permeability P via printing attempts:
# where R is the GUV radius, Cout the concentration outside of the GUV and t the time.
# [2] = Influx of fluorophore or ssDNA into GUVs with and without printed pore, confocal imaging; type: physicochemical; settings: for influx into GUV containing a printed pore: GUV with printed hydrogel pore
# Procedure: Representative confocal images of two adjacent GUVs (red, λex=488 nm) in the xy-(left) and an xz-plane (right, as indicated by white dashed line) are shown in FIG. 11c. […] The scalebar in the image of the xy-plane represents 20 μm.
# Further representative confocal images of two adjacent GUVs, similar as described in FIG. 11c, are shown in FIG. 11d. […] The scalebar in the image of the xy-plane represents 20 μm.
# Next, it was tested if the pores can transport larger and charged molecular cargo.
# 0.01 mg ml-1 Rhodamine B acrylate were added to the final solution for fluorescence microscopy.
Molecule,Papp at 12 mg mL-1 [1] [×10⁻⁶ cm/s],influx into GUV containing a printed pore [2],influx into GUV containing a printed pore ([2]; listed as single-stranded DNA),influx into adjacent GUV without printed pore ([2]; GUV without pore)
"Cc1cc(C)c(C(=O)P(=O)([O-])c2ccccc2)c(C)c1.[Li+] [LAP, Lithium phenyl-2,4,6-trimethylbenzoylphosphinate]",0.0987 ± 0.0325,–,–,–
"5′-Atto 647N TTTTTTAATTTTT 3′ (DNA, 5' {Atto647N}, backbone not given here) [13 base-long single-stranded DNA, 13 base-long single-stranded DNA labelled with Atto647N]",–,can diffuse into the GUV across the printed pore,influx,does not show DNA import
